According to US5756092A, “Use, in a composition, as cyclooxygenase activator and/or stabilizer, of at least one pyrimidine derivative sustituted at the 6th position and a cyclooxygenase substrate” (SocieteL'Oreal S.A., priority 1995, dated 1998):
Each block holds one molecule with its values, some of them ahead of it.

Assays:
[1] = molecular target: T1, prostaglandin-endoperoxide synthase (PGHS) (Ovis aries, UniProt P05979); assay: Measurement of the activating and/or stabilizing power at a given concentration (oxygen consumption, Clark electrode); format: biochemical, sheep; conditions: 0.5 mM; 37° C.; initial rate; % relative to control
T1 construct: isolated from sheep seminal gland; purchased Cayman Chemical 60100; host or cells: sheep seminal gland
T1 sequence (P05979 25-600): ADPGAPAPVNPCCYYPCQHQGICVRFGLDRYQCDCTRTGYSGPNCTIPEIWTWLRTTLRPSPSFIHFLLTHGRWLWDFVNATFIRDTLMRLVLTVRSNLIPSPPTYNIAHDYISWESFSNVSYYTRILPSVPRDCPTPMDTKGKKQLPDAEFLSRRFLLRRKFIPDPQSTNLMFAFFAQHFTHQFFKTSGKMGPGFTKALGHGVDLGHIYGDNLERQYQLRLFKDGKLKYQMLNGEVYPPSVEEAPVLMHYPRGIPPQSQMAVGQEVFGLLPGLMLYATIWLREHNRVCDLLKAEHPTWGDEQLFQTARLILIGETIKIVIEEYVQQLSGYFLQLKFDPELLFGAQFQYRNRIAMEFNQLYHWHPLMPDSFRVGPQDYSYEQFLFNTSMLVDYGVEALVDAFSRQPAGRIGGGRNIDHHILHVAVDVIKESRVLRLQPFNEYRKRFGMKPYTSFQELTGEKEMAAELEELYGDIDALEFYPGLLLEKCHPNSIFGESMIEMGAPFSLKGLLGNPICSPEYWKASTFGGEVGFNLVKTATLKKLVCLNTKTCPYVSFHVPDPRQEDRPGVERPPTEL
Description: As indicated above, the enzymatic activity of a cyclooxygenase is indicated by a consumption of oxygen. It is therefore possible to monitor the course of the reaction in progress by measuring the consumption of oxygen in the reaction medium and thus to evaluate the activity of the enzyme by measuring the consumption of oxygen.
At time T=0 of the process, a buffered solution containing a cyclooxygenase is introduced into a measuring tank and then the whole is allowed to stabilize for at least one minute.
At time T=1 minute, an appropriate quantity of enzyme substrate is added and the oxygen consumption of the reaction is recorded.
This recording makes it possible to deduce the initial rate of the reaction and the period during which the initial rate of the reaction is maintained.
When a substance potentially having an activity on the cyclooxygenase is tested, the variation of the slope in a positive or negative direction relative to the results obtained with the enzyme alone reflects either the activation or the inhibition of the activity of the enzyme.
Measurement of the activating and/or stabilizing power of pyrimidine derivatives substituted at the 6th position, at a given concentration.
The quantity of oxygen necessary for the oxidation of arachidonic acid is measured by the cyclooxygenase activity of prostaglandin-endoperoxide synthase, in the presence or absence of the derivative to be tested.
The measurements of the consumption of oxygen are performed with a Clark electrode connected to a YSI 5300 oxygen meter of the Yellow Spring Instruments trademark.
These measurements are performed in an open chamber, with constant stirring, at a temperature of 37° C.
If a graph recorder is used, the measurement of the oxygen consumption takes the form of a curve whose maximum slope makes it possible to deduce the initial rate of the reaction, and from which it is possible to calculate the period during which the initial rate of the reaction is maintained.
The measurement of the activity of the derivatives to be tested is performed under the same conditions, by adding, to the reaction medium, the derivative to be tested. It is the variation of the slope and the variation of the period during which the maximum rate is maintained which make it possible to evaluate the activity of the derivative to be tested towards cyclooxygenase.
A solution of 0.1M TRIS and 5 mM EDTA at pH=8.00 (TE solution) is prepared.
The substrate is prepared in the form of a stock solution of potassium arachidonate according to the manufacturer's procedure (Interchim, France).
The solution thus obtained has an arachidonic acid titre of 46 mM. It can be stored at 4° C. for 24 hours.
The derivatives to be tested are prepared in the form of a stock solution with a titre of 5 mM in a water/alcohol mixture (80/20) and tested with the same batch of enzyme.
At t=0, there are introduced into the measuring chamber 380 μl of TEA buffer preheated to 37° C. that are allowed to equilibrate for at least one minute.
At t=1, 300 units of enzyme (PGHS) are introduced.
The recording is initiated and the whole is again allowed to stabilize for one minute. The recording obtained gives the base level of the reaction.
After an additional minute, 10 μl of substrate are introduced and the consumption of oxygen is recorded for 2 to 3 minutes.
The initial rate of the reaction and the period during which this rate is maintained are thus determined.
The experimental conditions are identical to those above, except that the TEA buffer preheated to 37° C. is replaced by an identical buffer containing the derivative to be tested at a concentration of 0.5 mM.

cyclooxygenase = conditions: literature; cited from earlier work
lipoxygenase = conditions: literature (Bedford et al., 1983); cited from earlier work
[2] = molecular target: T2, prostaglandin-endoperoxide synthase (Ovis aries, UniProt P05979); assay: Calculation of the 50% activating concentration (AC 50) for the activation of prostaglandin-endoperoxide synthase; format: biochemical, sheep
T2 construct: isolated from sheep seminal gland
T2 sequence (P05979 25-600): T1 sequence (P05979 25-600)
Procedure: Calculation of the 50% activating concentration (AC 50) of 2,4-diamino-6-piperidinopyrimidine 3-oxide for the activation of prostaglandin-endoperoxide synthase. 2,4-diamino-6-piperidinopyrimidine 3-oxide Activation
By a statistical calculation (log-linear regression, the correlation coefficient being 0.98 and the significance of the binding less than or equal to 0.01), an AC 50 is found for 40 μM for 2,4-diamino-6-piperidinopyrimidine 3-oxide.

[3] = U.S. Pat. No. 4,596,812; cited from earlier work
hair growth = conditions: U.S. Pat. No. 4,596,812; cited from earlier work

SMILES: COc1ccc2c(c1)c(CC(=O)O)c(C)n2C(=O)c1ccc(Cl)cc1 [Indomethacin, 1-(4-Chlorobenzoyl)-5-methoxy-2-methyl-1H-indole-3-acetic acid]
- activation at 500 µM [1]: -100%

SMILES: Nc1cc(N2CCCCC2)nc(N)n1 [2,4-diamino-6-piperidinopyrimidine]
- activation at 500 µM [1]: -14%

SMILES: O=C1C(O)=C(O)C(=O)c2cc(Cl)ccc21 [6-chloro-2,3-dihydroxy-1,4-naphthoquinone]
- effect on cyclooxygenase activity (cyclooxygenase): cyclooxygenase stimulating agent
- effect on lipoxygenase (lipoxygenase): lipoxygenase inhibitor

SMILES: Cc1nc(N2CCCCC2)cc(N)[n+]1[O-] [2-methyl-4-amino-6-piperidinopyrimidine 3-oxide]
- activation at 500 µM [1]: 24%

SMILES: Nc1cc(N2CCCCC2)nc(N)[n+]1[O-] [2,4-diamino-6-piperidinopyrimidine 3-oxide]
- activation at 500 µM [1]: 58%
- activation at 15.6 µM ([2]; 15.6 μM, read-out: Activation (% of control)): 23%
- activation at 62.5 µM ([2]; 62.5 μM, read-out: Activation (% of control)): 61%
- activation at 125 µM ([2]; 125 μM, read-out: Activation (% of control)): 90%
- activation at 250 µM ([2]; 250 μM, read-out: Activation (% of control)): 102%
- activation at 500 µM ([2]; 500 μM, read-out: Activation (% of control)): 146%
- activation at 1000 µM ([2]; 1000 μM, read-out: Activation (% of control)): 181%
- AC50 ([2]; log-linear regression, correlation coefficient 0.98): 40 µM
- antihypertensive effects [3]: antihypertensive effects
- capacity to promote hair growth (hair growth): capacity to promote hair growth

Now from value to molecule:

- activation at 500 µM [1]: 171%
SMILES: CCCNc1cc(N(C)C)nc(NCCC)[n+]1[O-] [2,4-dipropylamino-6-dimethylaminopyrimidine 3-oxide]

- activation at 500 µM [1]: 173%
SMILES: CCCNc1cc(N2CCCCC2)nc(N)[n+]1[O-] [2-amino-4-propylamino-6-piperidinopyrimidine 3-oxide]

- activation at 500 µM [1]: 117%
SMILES: CCCNc1cc(N(C)C)nc(N)[n+]1[O-] [2-amino-4-propylamino-6-dimethylaminopyrimidine 3-oxide]

- activation at 500 µM [1]: 13%
SMILES: CCCCOc1cc(N)[n+]([O-])c(N)n1 [2,4-diamino-6-butyloxypyrimidine 3-oxide]
